From patent publication US5585273A (priority 1994, dated 1996)
Where a SMILES comes first, the peptide text is derived from it. [ ]: non-standard residue; d: D form. The star is where a group is joined. Sta = CC(C)C[C@H](N)[C@@H](O)CC(=O)O; Isovaleryl = CC(C)CC(=O)*

Assays:
[1] = biological target: T1, Papain (thiol protease) from papaya latex (Carica papaya, UniProt P00784); experiment: Inhibition of papain-mediated HRPO release (Experiment XV, Part 2); type: biochemical; conditions: Part II
T1 construct: purchased Sigma Chemical Co; host or cells: papaya latex
Method: (§1) In the second part, the enzymes are preincubated with their respective inhibitors and appropriate buffers for 15 mins. These are then added to the substrate and incubated at room temp for further 15 mins.
(§2) In both cases, the reaction mixture is centrifuged to remove solid phase conjugate. The supernatant (5 μl) is added to Hemoccult® slides and developed with 5 μl of hydrogen peroxide.

[2] = biological target: T2, Trypsin (serine protease) from bovine pancreas (Bos taurus, UniProt P00760); experiment: Inhibition of trypsin-mediated HRPO release (Experiment XV, Part 2); type: biochemical; conditions: Part II
T2 construct: purchased U.S. Biochemicals; host or cells: bovine pancreas
Method: as §1, §2

[3] = test system: Candida albicans aspartic protease; conditions: background statement; cited from earlier work
[4] = biological target: Candida albicans aspartic protease (Candida albicans, UniProt P0DJ06); conditions: Part II
Method: as §1, §2

[5] = test system: [POLYMERIC DIALDEHYDE-KAPPA-CASEIN-HRPO] conjugate; conditions: acetate buffer pH 4.0, 15 minutes at room temperature
Method: The suspension was incubated at room temperature for 15 minutes and centrifuged to remove the solid phase conjugate. Five microliters of the supernatant were added to a guaiac slide, followed by five microliters of hydrogen peroxide solution.

[6] = test system: [Sepharose-Hemoglobin-HRPO] (or the myoglobin equivalent) conjugate; conditions: acetate buffer pH 4.0, 15 minutes at room temperature
Method: 40 mg (wet weight) [Sepharose-Hemoglobin-HRPO] (or the myoglobin equivalent) conjugate were suspended in 75 microliters acetate buffer, pH 4.0 and 25 microliters of test solution were added. The suspension was incubated at room temperature for 15 minutes and centrifuged to remove the solid phase conjugate. Five microliters of the supernatant were added to a guaiac slide, followed by five microliters of hydrogen peroxide solution.

[7] = test system: [Sepharose-Casein-HRPO] (or the Kappa-Casein equivalent) conjugate; conditions: acetate buffer pH 4.0, 15 minutes at room temperature
Method: 40 mg (wet weight) [Sepharose-Casein-HRPO] (or the Kappa-Casein equivalent) conjugate were suspended in 75 microliters acetate buffer, pH 4.0 and 25 microliters of test solution were added. The suspension was incubated at room temperature for 15 minutes and centrifuged to remove the solid phase conjugate. Five microliters of the supernatant were added to a guaiac slide, followed by five microliters of hydrogen peroxide solution.

[8] = test system: [Sigmacell® 20-Hemoglobin-HRPO] (or the myoglobin equivalent) conjugate; conditions: acetate buffer pH 4.0, 15 minutes at room temperature
Method: 40 mg (wet weight) [Sigmacell® 20-Hemoglobin-HRPO] (or the myoglobin equivalent) conjugate were suspended in 75 microliters acetate buffer, pH 4.0 and 25 microliters of test solution were added. The suspension was incubated at room temperature for 15 minutes and centrifuged to remove the solid phase conjugate. Five microliters of the supernatant were added to a guaiac slide, followed by five microliters of hydrogen peroxide solution.

[9] = test system: [Sigmacell® 20-Kappa-Casein-HRPO] conjugate; conditions: acetate buffer pH 4.0, 15 minutes at room temperature
Method: (§3) 40 mg (wet weight) [Sigmacell® 20-Kappa-Casein-HRPO] conjugate were suspended in 75 microliters acetate buffer, pH 4.0 and 25 microliters of test solution were added. The suspension was incubated at room temperature for 15 minutes and centrifuged to remove the solid phase conjugate. Five microliters of the supernatant were added to a guaiac slide, followed by five microliters of hydrogen peroxide solution.

[10] = test system: [SIGMACELL® 20-KAPPA-CASEIN-HRPO] (HYDRAZIDE METHOD) or [SIGMACELL® 20-MYOGLOBIN/HEMOGLOBIN-HRPO] (ALDEHYDE METHOD); conditions: acetate buffer pH 4.0, 15 minutes at room temperature
Method: as §3

[11] = test system: [Chitin-Kappa-Casein-HRPO] conjugate; conditions: acetate buffer pH 4.0, 15 minutes at room temperature
Method: 40 mg (wet weight) [Chitin-Kappa-Casein-HRPO] conjugate were suspended in 75 microliters acetate buffer, pH 4.0 and 25 microliters of test solution were added. The suspension was incubated at room temperature for 15 minutes and centfifuged to remove the solid phase conjugate. Five μl of the supernatant were added to a guaiac slide, followed by five microliters of hydrogen peroxide solution.

[12] = test system: [Eupergit® C-Myoglobin-HRPO]; experiment: Activity of various proteases on Eupergit C-myoglobin-HRPO (Experiment XV); type: biochemical; conditions: Part I
Method: This assay is set up in two parts. The first is to determine the activity of the different proteases on the substrate [Eupergit® C-Myoglobin-HRPO]. The enzymes and controls (enzymes boiled for 15 min) are incubated with 20 mg of substrate and buffers (see quantities in table below) for 15 minutes prior to assay.

Candida albicans aspartic protease (Candida albicans, UniProt P0DJ06), sequence (P0DJ06 57-398): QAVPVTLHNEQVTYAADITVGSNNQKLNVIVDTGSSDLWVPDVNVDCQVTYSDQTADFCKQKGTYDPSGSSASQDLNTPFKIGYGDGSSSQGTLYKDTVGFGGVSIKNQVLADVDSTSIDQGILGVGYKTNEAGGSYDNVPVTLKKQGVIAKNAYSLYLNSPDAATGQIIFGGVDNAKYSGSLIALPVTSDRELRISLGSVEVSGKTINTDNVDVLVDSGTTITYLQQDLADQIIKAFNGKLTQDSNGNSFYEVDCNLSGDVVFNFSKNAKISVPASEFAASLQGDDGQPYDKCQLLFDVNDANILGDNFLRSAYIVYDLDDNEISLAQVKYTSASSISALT

Molecule: Cc1ccc(S(=O)(=O)NC(CCCCN)C(=O)CCl)cc1 (stereo not drawn) [TLCK, Tosyl lysine chloromethyl ketone]
- inhibition of color formation by papain [1]: inhibits color formation
- inhibition of color formation by trypsin [2]: inhibits color formation

Molecule: CC(C)CC(=O)N[C@H](C(=O)N[C@H](C(=O)N[C@@H](CC(C)C)[C@@H](O)CC(=O)N[C@@H](C)C(=O)N[C@@H](CC(C)C)[C@@H](O)CC(=O)O)C(C)C)C(C)C [Pepstatin, Pepstatin A] (Isovaleryl-VV[Sta]A[Sta]-OH)
- inhibition of Candida albicans aspartic protease [3]: strongly inhibited
- inhibition of color formation by aspartic protease [4]: inhibits color formation

Molecule: Pepsin
- blue color formation on guaiac impregnated sheet [5]: dark blue color
- blue color formation on guaiac impregnated sheet [6]: dark blue color
- blue color formation on guaiac impregnated sheet [7]: dark blue color
- blue color formation on guaiac impregnated sheet [8]: dark blue color
- blue color formation on guaiac impregnated sheet [9]: dark blue color
- blue color formation on guaiac impregnated sheet [10]: dark blue color
- blue color formation on guaiac impregnated sheet [11]: dark blue color

B1: Trypsin (boiled): trypsin boiled for 15 min (control) (protein, UniProt P00760 24-246, looked up)
Serine protease 1: IVGGYTCGANTVPYQVSLNSGYHFCGGSLINSQWVVSAAHCYKSGIQVRLGEDNINVVEGNEQFISASKSIVHPSYNSNTLNNDIMLIKLKSAASLNSRVASISLPTSCASAGTQCLISGWGNTKSSGTSYPDVLKCLKAPILSDSSCKSAYPGQITSNMFCAGYLEGGKDSCQGDSGGPVVCSGKLQGIVSWGSGCAQKNKPGVYTKVCNYVSWIKQTIASN
modifications: heat-denatured
- blue color formation on guaiac slides ([12]; pH 7.4): faintest color detectable

B2: Papain (boiled): papain boiled for 15 min (control) (protein, UniProt P00784 134-345, looked up)
Papain: IPEYVDWRQKGAVTPVKNQGSCGSCWAFSAVVTIEGIIKIRTGNLNEYSEQELLDCDRRSYGCNGGYPWSALQLVAQYGIHYRNTYPYEGVQRYCRSREKGPYAAKTDGVRQVQPYNEGALLYSIANQPVSVVLEAAGKDFQLYRGGIFVGPCGNKVDHAVAAVGYGPNYILIKNSWGTGWGENGYIRIKRGTGNSYGVCGLYTSSFYPVKN
modifications: heat-denatured
- blue color formation on guaiac slides ([12]; pH 7.4): faintest color detectable

B3: Trypsin: Trypsin (serine protease) from bovine pancreas (2900 units/mg activity), 2 mg/ml (protein, UniProt P00760 24-246, looked up)
Serine protease 1: B1 Serine protease 1
- blue color formation on guaiac slides ([12]; pH 7.4): strong blue color

B4: Papain: Papain (thiol protease) from papaya latex (12 units/mg activity), 2 mg/ml (protein, UniProt P00784 134-345, looked up)
Papain: B2 Papain
- blue color formation on guaiac slides ([12]; pH 7.0): strong blue color
